The data set is described as follows: Saturated concentration (solubility) of crystalline powder compound in inorganic salt aqueous solution. The data set is classed as physicochemical. Particulars: for Saturated concentration: 25° C., aqueous solution containing only 15 wt % of sodium chloride and 10 wt % of ammonium chloride; for Saturating concentration: 25 degrees Celsius. As for the experimental part: The latent heat cold storage material of the present disclosure contains a crystalline powder as a supercooling inhibitor. The crystalline powder is formed of a compound having low solubility in an aqueous solution of an inorganic salt (hereinafter, also referred to as a low-solubility compound).
In the present disclosure, the “solubility” refers to a limit of an amount at which a solute is dissolved in a certain amount of a solvent. The solubility is represented by a mass (g) of the solute which is dissolved in 100 g of the solvent at a certain temperature. […] In the present disclosure, the “saturated concentration” refers to a concentration of an aqueous solution in which a solute is dissolved up to the solubility. When the limit of an amount at which a solute is dissolved in 100 g of a solvent is 20 g, the solubility is 20 g, and the saturated concentration of the solute is 16.7 wt %.

From patent US9845420B2, “Latent heat cold storage material” (Panasonic Intellectual Property Management Co., Ltd., priority 2015, dated 2017) come the findings set out here.

On to `O=C(NC1CCCCC1)NC1CCCCC1` [1,3-dicyclohexylurea], for which the Saturated concentration result was “less than 7.0 wt %”.

For the compound `CCNC(=O)NCC` [1,3-diethylurea], the Saturated concentration came out at 3.0 wt %. The Saturating concentration (aqueous solution containing 10 wt % of potassium chloride and 10 wt % of ammonium chloride) was found to be 7.0 wt %. Also, the Saturating concentration entry (aqueous solution containing 12.5 wt % of potassium chloride and 12.5 wt % of ammonium chloride) is “less than 7.0 wt %”. Besides, the “Solubility in the inorganic salt aqueous solution” value (normal temperature, inorganic salt concentration 10 to 30 wt %) was no more than 10 wt %.

Turning to `CCCCNC(=O)NCCCC` [1,3-dibutylurea], the Saturated concentration result is “less than 0.08 wt %”.
